Results taken from patent publication US9932637B2, “Genetic polymorphisms associated with cardiovascular disorders and drug response, methods of detection and uses thereof” (CELERA CORPORATION, priority 2003, dated 2018).

System: patients with prior myocardial infarction (CARE study)
Assay: CARE: association of SNPs with pravastatin treatment in cardiovascular events prevention (logistic regression, odds ratio pravastatin vs placebo by genotype; Table 8)
Type: in vivo, human
Conditions: All Patients; for Total Cardiovascular Disease Events, n/total (%) / Non-fatal MI (def & prob), n/total (%) / Fatal/Non-fatal MI (def & prob), n/total (%) / Fatal/Non-fatal Atherosclerotic CV Disease, n/total (%) / Hosp. for Cardiovascular Disease, n/total (%) / Total Mortality, n/total (%): Prava
Description: In order to identify genetic markers associated with acute coronary events (e.g. MI, stroke, unstable angina, congestive heart failure, etc.) or response to statin treatment for the prevention of coronary events, samples from the Cholesterol and Recurrent Events (CARE) study (a randomized multicentral double-blinded trial on secondary prevention of acute coronary events with pravastatin) (Sacks et al., 1991, Am. J. Cardiol. 68: 1436-1446) were genotyped. A well-documented myocardial infarction (MI) was one of the enrollment criteria for entry into the CARE study. Patients were enrolled in the CARE trial from 80 participating study centers. […] Patients were randomized to receive either 40 mg of pravastatin once daily or a matching placebo. The primary endpoint of the trial was death from coronary heart disease and the median duration of follow-up was 5.0 years (range, 4.0 to 6.2 years). […] Secondary endpoints of other related cardiovascular or metabolic disease events, and changes in clinical variables were also recorded in pravastatin-treated and placebo groups. All individuals included in the study had signed a written informed consent form and the study protocol was approved by the respective Institutional Review Boards (IRBs).
For genotyping SNPs in CARE patient samples, DNA was extracted from blood samples using conventional DNA extraction methods such as the QIA-amp kit from Qiagen. Genotypes were obtained on an ABI PRISM® 7900HT Sequence Detection PCR system (Applied Biosystems, Foster City, Calif.) by kinetic allele-specific PCR, similar to the method described by Germer et al. (Germer S., Holland M. J., Higuchi R. 2000, Genome Res. 10: 258-266).
Statistical analysis for association of SNPs with pravastatin treatment in cardiovascular events prevention (Table 8) was carried out using an overall logistic regression model that included an intercept, a parameter for the effect of a genotype containing two rare alleles versus a genotype containing no rare alleles, a parameter for the effect of a genotype containing one rare allele versus a genotype containing no rare alleles, a parameter for the effect of use of pravastatin versus the use of placebo, and parameters for the interaction effects between SNP genotypes and pravastatin use. The test of the overall model is a chi-square test with two degrees of freedom for analyses containing all three genotypes, and one degree of freedom for analyses containing two genotypes.
Effect sizes were estimated through odds ratios (pravastatin group versus placebo) for carriers of each genotype (groups of 0, 1, and 2 minor allele carriers). The effect was considered to be significant if p-value for testing whether any of the interactions between SNP genotypes and pravastatin use were <0.05. […] Odds ratios less than one indicate that the specific SNP allele has a protective effect and odds ratios greater than one indicate that the specific SNP allele has an adverse effect.

[1] = HLA-DPB1 hCV25651174, Coronary Artery Bypass or Revascularization
[2] = HLA-DPB1 hCV25651174, Fatal CHD/Definite Non-fatal MI
[3] = HLA-DPB1 hCV25651174, Fatal/Non-fatal Atherosclerotic CV Disease
[4] = HLA-DPB1 hCV25651174, Fatal/Non-fatal MI (def & prob)
[5] = HLA-DPB1 hCV25651174, Hosp. for Cardiovascular Disease
[6] = HLA-DPB1 hCV25651174, Non-fatal MI (def & prob)
[7] = HLA-DPB1 hCV25651174, Total Cardiovascular Disease Events
[8] = HLA-DPB1 hCV25651174, Total Coronary Heart Disease Events
[9] = ICAM1 hCV8726337, Fatal/Non-fatal MI (def & prob)
[10] = ICAM1 hCV8726337, Non-fatal MI (def & prob)
[11] = ICAM3 hCV25473653, Fatal/Non-fatal Atherosclerotic CV Disease
[12] = ICAM3 hCV25473653, Total Cardiovascular Disease Events
[13] = IGF2R hCV2200985, Hosp. for Cardiovascular Disease

CC[C@H](C)C(=O)O[C@H]1C[C@H](O)C=C2C=C[C@H](C)[C@H](CC[C@@H](O)C[C@@H](O)CC(=O)O)[C@H]21 [pravastatin]
Total Cardiovascular Disease Events, n/total (%) (HLA-DPB1 hCV25651174, 2 Rare Alleles, n/total 64/144): (44.4%)
Prava vs. Placebo Odds Ratio, 0 Rare Alleles [1]: 0.68
Prava vs. Placebo Odds Ratio, 1 Rare Alleles [1]: 0.58
Prava vs. Placebo Odds Ratio, 2 Rare Alleles [1]: 2.11
Prava vs. Placebo Odds Ratio, 0 Rare Alleles [2]: 0.57
Prava vs. Placebo Odds Ratio, 1 Rare Alleles [2]: 0.74
Prava vs. Placebo Odds Ratio, 2 Rare Alleles [2]: 1.77
Prava vs. Placebo Odds Ratio, 0 Rare Alleles [3]: 0.66
Prava vs. Placebo Odds Ratio, 1 Rare Alleles [3]: 0.78
Prava vs. Placebo Odds Ratio, 2 Rare Alleles [3]: 1.60
Prava vs. Placebo Odds Ratio, 0 Rare Alleles [4]: 0.54
Prava vs. Placebo Odds Ratio, 1 Rare Alleles [4]: 0.67
Prava vs. Placebo Odds Ratio, 2 Rare Alleles [4]: 1.97
Prava vs. Placebo Odds Ratio, 0 Rare Alleles [5]: 0.70
Prava vs. Placebo Odds Ratio, 1 Rare Alleles [5]: 0.70
Prava vs. Placebo Odds Ratio, 2 Rare Alleles [5]: 1.42
Prava vs. Placebo Odds Ratio, 0 Rare Alleles [6]: 0.59
Prava vs. Placebo Odds Ratio, 1 Rare Alleles [6]: 0.68
Prava vs. Placebo Odds Ratio, 2 Rare Alleles [6]: 2.23
Prava vs. Placebo Odds Ratio, 0 Rare Alleles [7]: 0.69
Prava vs. Placebo Odds Ratio, 1 Rare Alleles [7]: 0.71
Prava vs. Placebo Odds Ratio, 2 Rare Alleles [7]: 1.35
Prava vs. Placebo Odds Ratio, 0 Rare Alleles [8]: 0.69
Prava vs. Placebo Odds Ratio, 1 Rare Alleles [8]: 0.73
Prava vs. Placebo Odds Ratio, 2 Rare Alleles [8]: 1.81
Non-fatal MI (def & prob), n/total (%) (ICAM1 hCV8726337, 0 Rare Alleles, n/total 28/495): (5.7%)
Fatal/Non-fatal MI (def & prob), n/total (%) (ICAM1 hCV8726337, 0 Rare Alleles, n/total 31/495): (6.3%)
Non-fatal MI (def & prob), n/total (%) (ICAM1 hCV8726337, 1 Rare Allele, n/total 76/736): (10.3%)
Fatal/Non-fatal MI (def & prob), n/total (%) (ICAM1 hCV8726337, 1 Rare Allele, n/total 84/736): (11.4%)
Non-fatal MI (def & prob), n/total (%) (ICAM1 hCV8726337, 2 Rare Alleles, n/total 30/282): (10.6%)
Fatal/Non-fatal MI (def & prob), n/total (%) (ICAM1 hCV8726337, 2 Rare Alleles, n/total 31/282): (11.0%)
Prava vs. Placebo Odds Ratio, 0 Rare Alleles [9]: 0.39
Prava vs. Placebo Odds Ratio, 1 Rare Alleles [9]: 0.85
Prava vs. Placebo Odds Ratio, 2 Rare Alleles [9]: 0.77
Prava vs. Placebo Odds Ratio, 0 Rare Alleles [10]: 0.39
Prava vs. Placebo Odds Ratio, 1 Rare Alleles [10]: 0.83
Prava vs. Placebo Odds Ratio, 2 Rare Alleles [10]: 0.94
Fatal/Non-fatal Atherosclerotic CV Disease, n/total (%) (ICAM3 hCV25473653, 0 Rare Alleles, n/total 299/924): (32.4%)
Total Cardiovascular Disease Events, n/total (%) (ICAM3 hCV25473653, 0 Rare Alleles, n/total 376/924): (40.7%)
Fatal/Non-fatal Atherosclerotic CV Disease, n/total (%) (ICAM3 hCV25473653, 1 Rare Allele, n/total 191/511): (37.4%)
Total Cardiovascular Disease Events, n/total (%) (ICAM3 hCV25473653, 1 Rare Allele, n/total 230/511): (45.0%)
Fatal/Non-fatal Atherosclerotic CV Disease, n/total (%) (ICAM3 hCV25473653, 2 Rare Alleles, n/total 14/70): (20.0%)
Total Cardiovascular Disease Events, n/total (%) (ICAM3 hCV25473653, 2 Rare Alleles, n/total 19/70): (27.1%)
Prava vs. Placebo Odds Ratio, 0 Rare Alleles [11]: 0.71
Prava vs. Placebo Odds Ratio, 1 Rare Alleles [11]: 0.97
Prava vs. Placebo Odds Ratio, 2 Rare Alleles [11]: 0.37
Prava vs. Placebo Odds Ratio, 0 Rare Alleles [12]: 0.71
Prava vs. Placebo Odds Ratio, 1 Rare Alleles [12]: 0.93
Prava vs. Placebo Odds Ratio, 2 Rare Alleles [12]: 0.37
Hosp. for Cardiovascular Disease, n/total (%) (IGF2R hCV2200985, 0 Rare Alleles, n/total 465/1175): (39.6%)
Hosp. for Cardiovascular Disease, n/total (%) (IGF2R hCV2200985, 1 Rare Allele, n/total 137/316): (43.4%)
Hosp. for Cardiovascular Disease, n/total (%) (IGF2R hCV2200985, 2 Rare Alleles, n/total 5/24): (20.8%)
Prava vs. Placebo Odds Ratio, 0 Rare Alleles [13]: 0.75
Prava vs. Placebo Odds Ratio, 1 Rare Alleles [13]: 0.88
Prava vs. Placebo Odds Ratio, 2 Rare Alleles [13]: 0.12
Total Mortality, n/total (%) (IL1A hCV9546471, 0 Rare Alleles, n/total 52/759): (6.9%)
Total Mortality, n/total (%) (IL1A hCV9546471, 1 Rare Allele, n/total 28/617): (4.5%)
Total Mortality, n/total (%) (IL1A hCV9546471, 2 Rare Alleles, n/total 4/132): (3.0%)
Prava vs. Placebo Odds Ratio, 0 Rare Alleles (IL1A hCV9546471, Total Mortality): 1.40
